Patent publication US20170304329A1 (THE UNIVERSITY OF KANSAS, priority 2014, published 2017)
pIC50: −log10 of the molar value. Structures can show the parent of a compound that is named as a salt. Where two headings read alike, the source gives them in different places.

Key:
[1] = Study 10954: urine CPX and CPX-G pharmacokinetics after IV CPX-POM and CPX-O; assay type: in vivo, male Sprague-Dawley rats; settings: rats; 10 mg/kg IV
Excerpt: (§1) Study 10954. Bioavailability of Ciclopirox Following Intravenous Administration of Ciclopirox-POM Prodrug in the Rat. […] Given the low oral bioavailability of CPX observed in the mouse following administration of CPX-O and CPX-POM, this route of administration was not investigated in this study.

[2] = Study 11429: plasma CPX pharmacokinetics after IV CPX-POM, SQ CPX-POM and oral CPX-O; assay type: in vivo, male beagle dogs; settings: dogs; 3 mg/kg IV and 9 mg/kg SQ
Description: (§6) Intravenous CPX-POM was used as the reference in characterizing the bioavailability of ciclopirox following SQ ciclopirox-POM prodrug in this specie.

[3] = dogs; 3 mg/kg IV and 9 mg/kg SQ
[4] = Study 10953: plasma CPX pharmacokinetics after IV CPX-POM and CPX-O; assay type: in vivo, male beagle dogs; settings: dogs
Description: (§2) Study 10953. Bioavailability of Ciclopirox Following Intravenous Administration of Ciclopirox-POM Prodrug in the Dog. […] Given the low oral bioavailability of CPX observed in the mouse following administration of CPX-O and CPX-POM, this route of administration was not investigated in this study.
FIG. 14 illustrates the mean plasma CPX concentration-time profiles following administration of 3 mg/kg IV CPX-POM and CPX-O to four male beagle dogs.

[5] = Series of pharmacokinetic studies (summary); settings: following IV administration in mice, rats, and dogs
[6] = Study 208-02: plasma CPX pharmacokinetics after IV and oral CPX-O and CPX-POM; assay type: in vivo, male C57/Bl6 mice; settings: mice; following oral and IV administration
Excerpt: Study 208-02. Bioavailability of Ciclopirox Following Oral and Intravenous Administration of Ciclopirox-POM Prodrug in the Mouse. […] The objectives of this study were to characterize the rate and extent of CPX-POM metabolism and assess the feasibility of orally administered ciclopirox-POM prodrug in support of future cancer proof of principle studies.

[7] = Study 11206: urine CPX and CPX-G pharmacokinetics after single and repeated IP CPX-POM; assay type: in vivo, male C57/Bl6 mice; settings: mice; IP 50, 100, and 200 mg/kg
Description: Urine ciclopirox (CPX) pharmacokinetics were characterized in mice following single (Day 1) and repeat (Day 10) dose (once daily for ten consecutive days) administration of 50, 100, and 200 mg/kg ciclopirox-POM prodrug (CPX-POM) to three separate groups of six mice each, are summarized in Table 3B below. […] Following single and repeat dose IP administration of 50, 100, and 200 mg/kg CPX-POM, less than 1% of the dose was excreted as CPX over 24 hours. Despite the low percent dose recovery as ciclopirox, however, urine CPX concentrations exceeded the in vitro IC50 value of 2 μM by several-fold across the entire dose range.

[8] = Aqueous solubility; assay type: physicochemical
[9] = Study 10954: plasma CPX pharmacokinetics after IV CPX-POM and CPX-O; assay type: in vivo, male Sprague-Dawley rats; settings: rats
Excerpt: as §1

[10] = Study 11428: plasma CPX pharmacokinetics after IV CPX-POM, SQ CPX-POM and oral CPX-O; assay type: in vivo, male Sprague-Dawley rats; settings: rats; 20 mg/kg IV and 30 mg/kg SQ
Description: as §6

[11] = mice
Description: The plasma and urine pharmacokinetics of ciclopirox (CPX) were characterized in the mouse following 10 mg/kg IV and 50 mg/kg IP administration of ciclopirox-POM prodrug (CPX-POM). […] In addition, we characterized the urinary excretion of CPX and ciclopirox glucuronide (CPX-G) to describe urinary tract exposure to CPX following IP administration of CPX-POM. Two treatment groups of 30 C57BL/6 mice each were treated with CPX-POM. Prior to and over six hours post-dose, three animals were sacrificed at each selected plasma sampling time point. Blood (plasma) was collected by cardiac puncture for bioanalysis. Plasma was pooled at each time point. In addition, two groups of six mice each were administered 10 mg/kg IV and 50 mg/kg IP CPX-POM to characterize urine pharmacokinetics. Mice were placed in metabolism cages with urine collected over 24 hours post-dose (0-8 hour and 8-24 hour urine collection intervals). As with plasma, urine samples collected from six animals were pooled for bioanalysis.

[12] = tested on: 253JBV cells; assay: Cell proliferation, hexosaminidase assay; assay type: cell-based, human; settings: Homo sapiens, 48 h
Description: (§3) To determine the effect of CPX on bladder cancer cell proliferation in T24 (MIBC) and 253-JBV (NMIBC) cells, 5,000 cells per well were seeded on to 96-well plates and grown overnight. The cells were then treated with increasing doses of CPX in RPMI media containing 10% FBS. Analysis of cell proliferation after the treatment period was estimated by the hexosaminidase assay. Briefly, the medium was removed and hexosaminidase substrate solution in citrate buffer pH 5 (7.5 mM), p-nitrophenol-N-acetyl-beta-D-glucosaminidase (Sigma Aldrich) was added at 75 μL per well. The plate was incubated at 37° C. in 100% humidity for 30 minutes. The reaction was stopped with 112.5 μL of 50 mM glycine containing 5 mM of EDTA (pH 10.4). The absorbance was measured at 405 nm. Experiments were conducted at n=6, and then repeated at least three times. The data were analyzed as percent of control, where the control wells were treated with equivalent amounts of DMSO alone. For IC50 calculations, a plot between the drug concentration and hexosaminidase activity was generated and the data was fitted either linearly or exponentially. The best fit was used for further processing of data.
(§4) We determined and compared the effect of CPX with CPX-POM and CPX-glucuronide in vitro by performing proliferation assay. To determine the effect of CPX, CPX-POM and CPX-glucuronide on bladder cancer cell proliferation in T24 (MIBC) and 253-JBV (NMIBC) cells, 5,000 cells per well were seeded on to 96-well plates and grown overnight. The cells were then treated with increasing doses of CPX, CPX-POM and CPX-glucuronide in RPMI media containing 10% FBS. Analysis of cell proliferation after the treatment period was estimated by the hexosaminidase assay. Briefly, the medium was removed and hexosaminidase substrate solution in citrate buffer pH 5 (7.5 mM), p-nitrophenol-N-acetyl-beta-D-glucosaminidase (Sigma Aldrich) was added at 75 μL per well. The plate was incubated at 37° C. in 100% humidity for 30 minutes. The reaction was stopped with 112.5 μL of 50 mM glycine containing 5 mM of EDTA (pH 10.4). The absorbance was measured at 405 nm.
(§5) Experiments were conducted at n=6, and then repeated at least three times. The data were analyzed as percent of control, where the control wells were treated with equivalent amounts of DMSO alone. For IC50 so calculations, a plot between the drug concentration and hexosaminidase activity was generated and the data was fitted either linearly or exponentially.

[13] = tested on: T24 cells; assay: Cell proliferation, hexosaminidase assay; assay type: cell-based, human; settings: Homo sapiens, T-24, 48 h, 48 h
Description: as §3, §4, §5

[14] = Study 10953: urine CPX pharmacokinetics after IV CPX-POM and CPX-O; assay type: in vivo, male beagle dogs; settings: dogs; 3 mg/kg IV
Excerpt: as §2

[15] = tested on: proliferating cell nuclear antigen (PCNA) in T24 cells; assay: Western blot of PCNA; assay type: cell-based, human
Excerpt: CPX-POM inhibits proliferating cell nuclear antigen (PCNA) both in vitro and in vivo. […] Also, studies show a positive correlation between notch intracellular pathway and PCNA.

[16] = rats; 20 mg/kg IV and 30 mg/kg SQ
[17] = tested on: BBN induced bladder tumors; assay: BBN induced bladder tumor model; assay type: in vivo, mouse
Excerpt: There were no significant differences in bladder weights between the two CPX-POM treatment groups. […] There is a strong correlation between CPX-POM treatment and tumor stage. […] Hematoxylin and Eosin stained bladder tissue sections of BBN alone group animals show a very high frequency of T3 stage tumors.

Structure (SMILES): Cc1cc(C2CCCCC2)n(OCOP(=O)(O)O)c(=O)c1 [CPX-POM, phosphate disodium salt]
- CPX-POM in urine [1]: not detected in any urine samples collected
- CPX-POM in blood or urine [2]: not detected in any blood or urine sample
- tolerability [3]: well tolerated
- CPX-POM in plasma ([4]; 3 mg/kg IV bolus): not detected in the majority of plasma samples assayed
- mean Cmax relative to in vitro IC50 ([4]; 3 mg/kg IV, IC50 2 μM (414 ng/mL)): approximately seven-fold greater than the IC50
- prodrug in plasma and urine [5]: not detected in plasma nor urine
- prodrug in plasma [6]: not detected in plasma
- CPX-POM in urine [7]: not detected in any urine samples
- aqueous solubility [8]: improve the aqueous solubility of ciclopirox
- CPX-POM in plasma ([9]; 10 mg/kg IV bolus): failed to detect CPX-POM in the majority of samples collected
- Cmax relative to in vitro IC50 ([9]; 10 mg/kg IV, IC50 2 μM (414 ng/mL)): approximately twenty-fold greater than the IC50
- CPX-POM in blood or urine [10]: not detected in any blood or urine sample
- tolerability ([11]; 10 mg/kg IV and 50 mg/kg IP single doses): well tolerated
- CPX Cmax relative to in vitro IC50 ([11]; 50 mg/kg IP, IC50 2 μM (414 ng/mL)): five-fold greater than the IC50
- CPX-POM in plasma (BQL) ([11]; following either treatment (10 mg/kg IV, 50 mg/kg IP)): < 25 ng/mL
- pIC50 [12]: 4.32
- pIC50 [13]: ≤ 4.35
- CPX-POM in urine [14]: not detected in any urine sample
- PCNA level [15]: time dependent decrease in the level of PCNA
- tolerability [16]: well tolerated
- tumor stage ([17]; H&E stained bladder tissue sections, vs BBN alone): significant reduction in the stage T3 frequency
- Notch downstream target proteins ([17]; bladder tissue): significantly reduced the Notch downstream target proteins such as Cyclin D1 and c-Myc
- Notch1 signaling and γ-secretase complex proteins in vivo ([17]; bladder tissue, both treatment groups): significantly reduced Notch1 activation
- PCNA level in vivo ([17]; bladder tumor tissues): reduced the level of PCNA in vivo
- bladder weights (measure of tumor volume) ([17]; four weeks once daily IP 100 mg/kg and 200 mg/kg, vs controls): significantly lower (p=0.013)
